Laboratory results from PubChem BioAssay (NCI).
Values joined by “and” are separate entries in the source; they are usually repeats but may differ in a detail not shown here. Equal entries are not always repeated.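 Interpolation was linear, between the two tested concentrations surrounding the appropriate level; five concentrations were tested over 48 hours in 96-well plates. Here, GI50 denotes the concentration required for 50% inhibition of growth. TGI denotes the concentration required for complete inhibition of growth.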

Legend:
Assay in all cases: NCI tumour cell line growth inhibition, 48 h
786-0 renal = tested on: 786-0 renal
A498 renal = tested on: A498 renal
A549 NSCLC = tested on: A549 NSCLC
ACHN renal = tested on: ACHN renal
CCRF-CEM leukemia = tested on: CCRF-CEM leukemia
COLO 205 colon = tested on: COLO 205 colon
DLD-1 colon = tested on: DLD-1 colon
DMS 114 small cell lung = tested on: DMS 114 small cell lung
DMS 273 small cell lung = tested on: DMS 273 small cell lung
EKVX NSCLC = tested on: EKVX NSCLC
HCC-2998 colon = tested on: HCC-2998 colon
HCT-116 colon = tested on: HCT-116 colon
HCT-15 colon = tested on: HCT-15 colon
HL-60(TB) leukemia = tested on: HL-60(TB) leukemia
HOP-18 NSCLC = tested on: HOP-18 NSCLC
HOP-62 NSCLC = tested on: HOP-62 NSCLC
HOP-92 NSCLC = tested on: HOP-92 NSCLC
HT29 colon = tested on: HT29 colon
IGROV1 ovarian = tested on: IGROV1 ovarian
K-562 leukemia = tested on: K-562 leukemia
KM12 colon = tested on: KM12 colon
KM20L2 colon = tested on: KM20L2 colon
LOX IMVI melanoma = tested on: LOX IMVI melanoma
LXFL 529 NSCLC = tested on: LXFL 529 NSCLC
M14 melanoma = tested on: M14 melanoma
M19-MEL melanoma = tested on: M19-MEL melanoma
MALME-3M melanoma = tested on: MALME-3M melanoma
MOLT-4 leukemia = tested on: MOLT-4 leukemia
NCI-H226 lung = tested on: NCI-H226 lung
NCI-H23 lung = tested on: NCI-H23 lung
NCI-H460 lung = tested on: NCI-H460 lung
NCI-H522 lung = tested on: NCI-H522 lung
OVCAR-3 ovarian = tested on: OVCAR-3 ovarian
OVCAR-4 ovarian = tested on: OVCAR-4 ovarian
OVCAR-5 ovarian = tested on: OVCAR-5 ovarian
OVCAR-8 ovarian = tested on: OVCAR-8 ovarian
RPMI-8226 leukemia = tested on: RPMI-8226 leukemia
RXF 393 renal = tested on: RXF 393 renal
RXF-631 renal = tested on: RXF-631 renal
SF-268 CNS = tested on: SF-268 CNS
SF-295 CNS = tested on: SF-295 CNS
SF-539 CNS = tested on: SF-539 CNS
SK-MEL-2 melanoma = tested on: SK-MEL-2 melanoma
SK-MEL-28 melanoma = tested on: SK-MEL-28 melanoma
SK-MEL-5 melanoma = tested on: SK-MEL-5 melanoma
SK-OV-3 ovarian = tested on: SK-OV-3 ovarian
SN12C renal = tested on: SN12C renal
SNB-19 CNS = tested on: SNB-19 CNS
SNB-75 CNS = tested on: SNB-75 CNS
SNB-78 CNS = tested on: SNB-78 CNS
SR leukemia = tested on: SR leukemia
SW-620 colon = tested on: SW-620 colon
TK-10 renal = tested on: TK-10 renal
U251 CNS = tested on: U251 CNS
UACC-257 melanoma = tested on: UACC-257 melanoma
UACC-62 melanoma = tested on: UACC-62 melanoma
UO-31 renal = tested on: UO-31 renal
XF 498 CNS = tested on: XF 498 CNS
MCF7 breast = tested on: MCF7 breast
MDA-N = tested on: MDA-N
NCI/ADR-RES ovarian = tested on: NCI/ADR-RES ovarian
P388 leukemia = tested on: P388 leukemia
P388/ADR leukemia = tested on: P388/ADR leukemia
SN12K1 renal = tested on: SN12K1 renal

`COc1ccccc1C(O)(c1ccccc1)C(O)(c1ccccc1)c1ccccc1OC` (stereo unspecified) was tested, and the TGI (786-0 renal) was > 100 µM, the TGI (A498 renal) was > 100 µM and the TGI (A549 NSCLC) was > 100 µM. For the same molecule, the TGI (ACHN renal) was > 100 µM, the TGI (CCRF-CEM leukemia) was > 100 µM and the TGI (COLO 205 colon) was > 100 µM. The TGI (DLD-1 colon) was > 100 µM, the TGI (DMS 114 small cell lung) was > 100 µM and the TGI (DMS 273 small cell lung) was > 100 µM. The TGI (EKVX NSCLC) was > 100 µM, the TGI (HCC-2998 colon) was > 100 µM and the TGI (HCT-116 colon) was > 100 µM. For the same molecule, the TGI (HCT-15 colon) was > 100 µM, the TGI (HL-60(TB) leukemia) was > 100 µM and the TGI (HOP-18 NSCLC) was > 100 µM. For the same molecule, the TGI (HOP-62 NSCLC) was > 100 µM, the TGI (HOP-92 NSCLC) was > 100 µM and the TGI (HT29 colon) was > 100 µM. The TGI (IGROV1 ovarian) was > 100 µM, the TGI (K-562 leukemia) was > 100 µM and the TGI (KM12 colon) was > 100 µM. For the same molecule, the TGI (KM20L2 colon) was > 100 µM, the TGI (LOX IMVI melanoma) was > 100 µM and the TGI (LXFL 529 NSCLC) was > 100 µM. For the same molecule, the TGI (M14 melanoma) was > 100 µM, the TGI (M19-MEL melanoma) was > 100 µM and the TGI (MALME-3M melanoma) was > 100 µM. For the same molecule, the TGI (MOLT-4 leukemia) was > 100 µM, the TGI (NCI-H226 lung) was > 100 µM and the TGI (NCI-H23 lung) was > 100 µM. The TGI (NCI-H460 lung) was > 100 µM, the TGI (NCI-H522 lung) was > 100 µM and the TGI (OVCAR-3 ovarian) was > 100 µM. The TGI (OVCAR-4 ovarian) was > 100 µM, the TGI (OVCAR-5 ovarian) was > 100 µM and the TGI (OVCAR-8 ovarian) was > 100 µM. The TGI (RPMI-8226 leukemia) was > 100 µM, the TGI (RXF 393 renal) was > 100 µM and the TGI (RXF-631 renal) was > 100 µM. For the same molecule, the TGI (SF-268 CNS) was > 100 µM, the TGI (SF-295 CNS) was > 100 µM and the TGI (SF-539 CNS) was > 100 µM. For the same molecule, the TGI (SK-MEL-2 melanoma) was > 100 µM, the TGI (SK-MEL-28 melanoma) was > 100 µM and the TGI (SK-MEL-5 melanoma) was > 100 µM. For the same molecule, the TGI (SK-OV-3 ovarian) was > 31.6 µM, the TGI (SN12C renal) was > 100 µM and the TGI (SNB-19 CNS) was > 100 µM. For the same molecule, the TGI (SNB-75 CNS) was > 100 µM, the TGI (SNB-78 CNS) was > 100 µM and the TGI (SR leukemia) was > 100 µM. For the same molecule, the TGI (SW-620 colon) was > 100 µM, the TGI (TK-10 renal) was > 100 µM and the TGI (U251 CNS) was > 100 µM. For the same molecule, the TGI (UACC-257 melanoma) was > 100 µM, the TGI (UACC-62 melanoma) was > 100 µM and the TGI (UO-31 renal) was > 100 µM. The TGI (XF 498 CNS) was > 100 µM.
For `CC(=O)O[C@H]1C(=O)[C@@]2(C)[C@H]([C@H](OC(=O)c3ccccc3)[C@]3(O)C[C@H](OC(=O)[C@H](O)[C@@H](NC(=O)c4ccccc4)c4ccccc4)C(C)=C1C3(C)C)[C@]1(OC(C)=O)CO[C@@H]1C[C@@H]2O`, the TGI (A549 NSCLC) was 25 µM and > 100 µM and 67.7 µM, the GI50 (DLD-1 colon) was 0.0551 µM and the TGI (DLD-1 colon) was 24.4 µM and > 100 µM. It also gave a TGI (DMS 114 small cell lung) of 0.0217 µM, a TGI (DMS 273 small cell lung) of 3.68 µM and a TGI (HOP-18 NSCLC) of 25 µM. The GI50 (LXFL 529 NSCLC) was 0.00356 µM, the TGI (LXFL 529 NSCLC) was 55.2 µM and the TGI (MCF7 breast) was 15.1 µM and 88.4 µM and 56.1 µM. For the same molecule, the GI50 (MDA-N) was 0.0025 µM and 0.0231 µM, the TGI (NCI/ADR-RES ovarian) was 15.1 µM and > 100 µM and 37.5 µM and the TGI (P388 leukemia) was 25 µM. For the same molecule, the TGI (P388/ADR leukemia) was 25 µM, the TGI (SK-MEL-28 melanoma) was 25 µM and > 71 µM and the TGI (SN12K1 renal) was 25 µM. The GI50 (SNB-78 CNS) was 0.087 µM, the TGI (SNB-78 CNS) was 24.3 µM and 45.1 µM and the TGI (XF 498 CNS) was 0.0355 µM.
